Reference: paper PMC3157365 (Journal of medicinal chemistry, 2008)

How the values were obtained:
hD2LR = hD2LR (Homo sapiens, UniProt P14416); experiment: Displacement of 125I-IABN in HEK 293 cells transfected with hD2LR; format: binding; conditions: for decrease in binding at D2R compared to the piperidinol (unbridged) analogue: comparator from ref 28
hD3R = hD3R (Homo sapiens, UniProt P35462); experiment: Displacement of 125I-IABN in HEK 293 cells transfected with hD3R; format: binding; conditions: vs 1
Sequence of hD3R (P35462 whole entry): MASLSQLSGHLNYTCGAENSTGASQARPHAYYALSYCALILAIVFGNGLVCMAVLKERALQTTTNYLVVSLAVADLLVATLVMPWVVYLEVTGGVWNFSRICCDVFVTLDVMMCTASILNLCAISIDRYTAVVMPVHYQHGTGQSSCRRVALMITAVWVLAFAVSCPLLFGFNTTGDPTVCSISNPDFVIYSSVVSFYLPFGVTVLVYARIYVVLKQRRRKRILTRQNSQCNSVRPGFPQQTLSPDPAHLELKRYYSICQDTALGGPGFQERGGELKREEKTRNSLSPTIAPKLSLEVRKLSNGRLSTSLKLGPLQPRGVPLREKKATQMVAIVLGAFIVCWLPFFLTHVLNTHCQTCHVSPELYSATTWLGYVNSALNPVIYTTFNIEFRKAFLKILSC

D3R = D3R (Homo sapiens, UniProt P35462); experiment: Functional assay at D3R; format: cell-based
Sequence of D3R (P35462 whole entry): as above

D2R = D2R (Homo sapiens, UniProt P14416); experiment: Functional assay at D2R; format: cell-based
Sequence of D2R (P14416 whole entry): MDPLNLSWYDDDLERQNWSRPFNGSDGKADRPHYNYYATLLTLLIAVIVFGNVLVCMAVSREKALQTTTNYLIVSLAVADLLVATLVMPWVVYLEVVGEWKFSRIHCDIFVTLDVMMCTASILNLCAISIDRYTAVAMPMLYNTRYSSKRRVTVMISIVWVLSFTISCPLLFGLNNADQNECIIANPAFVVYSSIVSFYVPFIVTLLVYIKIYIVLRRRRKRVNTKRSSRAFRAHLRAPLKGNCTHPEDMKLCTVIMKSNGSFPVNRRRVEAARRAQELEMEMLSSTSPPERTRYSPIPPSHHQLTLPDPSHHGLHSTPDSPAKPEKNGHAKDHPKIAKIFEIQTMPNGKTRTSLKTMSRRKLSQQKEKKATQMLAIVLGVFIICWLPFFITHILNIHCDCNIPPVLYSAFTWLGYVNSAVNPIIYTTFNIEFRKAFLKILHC

Sequence of hD2LR (P14416 whole entry): as above

SMILES	decrease in binding at D2R compared to the piperidinol (unbridged) analogue (hD2LR) [fold]	functional efficacy at D3R (D3R)	functional efficacy at D2R (D2R)	further results
COc1ccc2[nH]cc(CN3[C@@H]4CC[C@H]3C[C@](O)(c3ccc(SC)cc3)C4)c2c1 [Compound 40, endo-8-(5-Methoxy-1H-indol-3-ylmethyl)-3-(4-methylthiophenyl)-8-azabicyclo[3.2.1]octan-3-ol]	100			
OC1(c2ccc(Cl)c(Cl)c2)CCN(Cc2c[nH]c3ccccc23)CC1 [Compound 2, reference compound]				selectivity for the D2 receptor subtype (hD2LR; D2R over D3R): more than 10 fold
O[C@]1(c2ccc(Cl)cc2)C[C@H]2CC[C@@H](C1)N2Cc1c[nH]c2ccccc12 [Compound 31, endo-8-(1H-Indol-3-ylmethyl)-3-(4-chlorophenyl)-8-azabicyclo-[3.2.1]octan-3-ol]		antagonists	antagonists	increase in D3R binding affinity compared to the parent ligand 1 (hD3R): 10 fold; decrease in affinity at D2R compared to 1 (hD2LR; vs 1): 3 fold
O[C@@]1(c2ccc(Cl)cc2)C[C@H]2CC[C@@H](C1)N2Cc1csc2ccccc12 [Compound 41, endo-8-(Benzothien-3-ylmethyl)-3-(4-chlorophenyl)-8-azabicyclo[3.2.1]octan-3-ol]		antagonists	antagonists	
CSc1ccc([C@]2(O)C[C@H]3CC[C@@H](C2)N3Cc2c[nH]c3ccccc23)cc1 [Compound 37, endo-8-(1H-Indol-3-ylmethyl)-3-(4-(methylthio)phenyl)-8-azabicyclo[3.2.1]octan-3-ol]	24			
O[C@@]1(c2ccc(Cl)c(Cl)c2)C[C@H]2CC[C@@H](C1)N2Cc1c[nH]c2ccccc12 [Compound 32, endo-8-(1H-Indol-3-ylmethyl)-3-(3,4-dichlorophenyl)-8-azabicyclo[3.2.1]octan-3-ol]		antagonists		
